Test results as given in US9029343B2, “Modulators of histone methyltransferase, and methods of use thereof” (Epizyme, Inc., priority 2010, dated 2015).

Legend:
H3K79me2 in THP-1 cells = experiment: Methylation analysis: cellular H3K79 dimethylation in THP-1 cells; assay type: cell-based, Human
Description: THP-1 cells were incubated in the presence 50 μM of the indicated compounds for seven days. […] Following treatment, cells were harvested, and histones were extracted, fractionated by SDS-PAGE on a 4-20% gel, transferred to nitrocellulose membranes, and probed with antibodies to histone H3 and histone H3 dimethylated at lysine 79 (H3K79me2). Histones extracted from THP-1 cells expressing control (shNTC) and DOT1L targeting (shDOT1L) shRNAs were included as controls.
Cells were seeded at 5×10^5 cells/mL in a 12 well plate at a final volume of 2 mLs. Cells were dosed with compounds to the appropriate concentration from a 50 mM DMSO stock solution. Compound and media were refreshed every two days over the course of seven day incubation by counting cells using trypan blue exclusion (Vicell), pelleting at 200 g for 5 minutes and resuspending in fresh media containing compound at a final cell concentration of 5×10^5 cells/mL. […] Purified histones were quantitated using the BCA protein assay (Pierce) with a BSA standard curve. 400 ng of isolated histones were fractionated by SDS-PAGE on a 4-20% gel and transferred to nitrocellulose membranes. Membranes were incubated with various primary and secondary antibodies and imaged on the Licor imaging system (Odyssey). The H3K79-Me2 rabbit polyclonal was purchased from Abcam. Other rabbit polyclonal antibodies including H3K4-Me3, H3K9-Me3, H3K27-Me2, and H3K27-Me3 were purchased from Cell Signaling Technologies (CST). A mouse monoclonal total H3 antibody was used as a loading control (CST). Fluorescently labeled secondary antibodies were purchased from Odyssey.

[1] = test system: H3K4, H3K9 and H3K27 methylation in THP-1 cells; experiment: Methylation analysis: other histone methylation sites in THP-1 cells; assay type: cell-based, Human; conditions: antibodies to H3K4me3, H3K9me3, H3K27me2, H3K27me3
Description: Cells were seeded at 5×10^5 cells/mL in a 12 well plate at a final volume of 2 mLs. Cells were dosed with compounds to the appropriate concentration from a 50 mM DMSO stock solution. Compound and media were refreshed every two days over the course of seven day incubation by counting cells using trypan blue exclusion (Vicell), pelleting at 200 g for 5 minutes and resuspending in fresh media containing compound at a final cell concentration of 5×10^5 cells/mL. Following compound incubation, histones were extracted from 1×10^6 cells using a commercial histone extraction kit (Active Motif). Purified histones were quantitated using the BCA protein assay (Pierce) with a BSA standard curve. 400 ng of isolated histones were fractionated by SDS-PAGE on a 4-20% gel and transferred to nitrocellulose membranes. Membranes were incubated with various primary and secondary antibodies and imaged on the Licor imaging system (Odyssey). The H3K79-Me2 rabbit polyclonal was purchased from Abcam. Other rabbit polyclonal antibodies including H3K4-Me3, H3K9-Me3, H3K27-Me2, and H3K27-Me3 were purchased from Cell Signaling Technologies (CST). A mouse monoclonal total H3 antibody was used as a loading control (CST). Fluorescently labeled secondary antibodies were purchased from Odyssey.

EZH2 = EZH2 (Homo sapiens, UniProt Q15910); experiment: EZH2 IC50 (FIGS. 7A and 7B); assay type: biochemical
EZH2, sequence (Q15910 whole entry, species assumed): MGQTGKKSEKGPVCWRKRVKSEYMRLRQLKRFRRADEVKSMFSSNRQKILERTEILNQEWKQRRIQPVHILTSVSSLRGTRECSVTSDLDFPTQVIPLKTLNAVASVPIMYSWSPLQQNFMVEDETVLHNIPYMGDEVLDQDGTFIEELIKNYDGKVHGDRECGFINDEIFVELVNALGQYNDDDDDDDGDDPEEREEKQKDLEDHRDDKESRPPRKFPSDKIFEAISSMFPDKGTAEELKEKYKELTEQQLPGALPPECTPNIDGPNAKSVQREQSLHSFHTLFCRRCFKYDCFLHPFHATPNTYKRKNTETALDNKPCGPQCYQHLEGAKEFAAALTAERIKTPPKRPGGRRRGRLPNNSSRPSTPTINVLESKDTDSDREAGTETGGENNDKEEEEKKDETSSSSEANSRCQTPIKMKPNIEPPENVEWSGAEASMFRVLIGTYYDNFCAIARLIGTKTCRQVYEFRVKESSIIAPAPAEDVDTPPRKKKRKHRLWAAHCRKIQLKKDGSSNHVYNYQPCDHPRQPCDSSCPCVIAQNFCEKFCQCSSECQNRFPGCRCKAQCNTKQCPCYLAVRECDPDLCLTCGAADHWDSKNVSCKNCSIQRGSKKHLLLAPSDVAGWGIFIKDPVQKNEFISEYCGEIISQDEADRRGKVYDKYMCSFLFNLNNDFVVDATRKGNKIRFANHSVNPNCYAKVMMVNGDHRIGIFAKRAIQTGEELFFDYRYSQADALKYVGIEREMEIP
EZH2, sequence (O75530 whole entry partner, species assumed): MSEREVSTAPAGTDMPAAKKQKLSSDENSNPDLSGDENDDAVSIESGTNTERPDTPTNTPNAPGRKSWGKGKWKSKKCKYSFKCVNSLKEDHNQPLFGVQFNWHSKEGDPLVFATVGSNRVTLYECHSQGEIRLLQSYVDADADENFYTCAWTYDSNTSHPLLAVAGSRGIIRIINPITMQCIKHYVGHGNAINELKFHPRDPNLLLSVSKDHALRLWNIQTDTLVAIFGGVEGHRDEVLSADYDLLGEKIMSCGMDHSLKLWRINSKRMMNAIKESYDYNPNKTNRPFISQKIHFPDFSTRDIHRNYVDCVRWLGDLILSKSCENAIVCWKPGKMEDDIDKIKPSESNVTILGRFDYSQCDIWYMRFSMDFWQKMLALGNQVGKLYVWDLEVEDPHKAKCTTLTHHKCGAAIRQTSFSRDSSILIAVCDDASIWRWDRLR
EZH2, sequence (Q15022 whole entry partner, species assumed): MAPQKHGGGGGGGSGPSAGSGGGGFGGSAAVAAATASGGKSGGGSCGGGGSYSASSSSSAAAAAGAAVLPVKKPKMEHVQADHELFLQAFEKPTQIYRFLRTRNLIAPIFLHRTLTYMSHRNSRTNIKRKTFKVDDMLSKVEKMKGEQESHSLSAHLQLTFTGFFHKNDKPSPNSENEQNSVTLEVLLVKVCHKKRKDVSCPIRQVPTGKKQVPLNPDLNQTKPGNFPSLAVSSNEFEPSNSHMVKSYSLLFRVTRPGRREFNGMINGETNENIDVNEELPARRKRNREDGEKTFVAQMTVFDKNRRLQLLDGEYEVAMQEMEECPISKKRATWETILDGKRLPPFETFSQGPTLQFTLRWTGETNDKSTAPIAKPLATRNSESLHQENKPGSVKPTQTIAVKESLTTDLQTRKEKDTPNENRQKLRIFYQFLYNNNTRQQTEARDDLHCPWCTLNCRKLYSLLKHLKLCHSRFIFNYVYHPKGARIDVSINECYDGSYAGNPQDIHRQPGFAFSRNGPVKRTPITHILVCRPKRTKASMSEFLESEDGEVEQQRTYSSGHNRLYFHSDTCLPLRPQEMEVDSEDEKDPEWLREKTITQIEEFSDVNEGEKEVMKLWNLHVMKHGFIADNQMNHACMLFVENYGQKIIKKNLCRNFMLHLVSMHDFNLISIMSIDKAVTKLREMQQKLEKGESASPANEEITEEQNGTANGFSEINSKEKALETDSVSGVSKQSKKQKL

Row | Compound | IC50 (EZH2) [µM] | further results
1 | CN(CCCNC(=O)Nc1ccc(C(C)(C)C)cc1)C[C@H]1O[C@@H](n2cnc3c(N)ncnc32)[C@H](O)[C@@H]1O [Compound 118, 1-(3-((((2R,3S,4R,5R)-5-(6-amino-9H-purin-9-yl)-3,4-dihydroxytetrahydrofuran-2-yl)methyl)(methyl)amino)propyl)-3-(4-(tert-butyl)phenyl)urea] |  | cellular histone H3 lysine 79 dimethylation (H3K79me2) level (H3K79me2 in THP-1 cells; 50 μM, seven days, western blot): dramatically reduced; concentration at which reduction in H3K79me2 was still observed (H3K79me2 in THP-1 cells; seven days, lowest concentration tested): ≤ 0.4 µM; concentration dependence of reduction in H3K79me2 levels (H3K79me2 in THP-1 cells; several concentrations): dose dependent reduction; effect on sites targeted by other histone methyltransferases (H3K4, H3K9 and H3K27) [1]: did not affect
2 | CN(C[C@H]1O[C@@H](n2cnc3c(N)ncnc32)[C@H](O)[C@@H]1O)CC(C)(C)CNC(=O)Nc1ccc(C(C)(C)C)cc1 [Compound 163] | > 50 | 
3 | CN(C[C@H]1O[C@@H](n2cnc3c(N)ncnc32)[C@H](O)[C@@H]1O)CC1(CNC(=O)Nc2ccc(C(C)(C)C)cc2)CC1 [Compound 167] | > 50 | 
4 | CN(CCCNC(=O)Nc1ccc(Oc2ccccc2N)cc1)C[C@H]1O[C@@H](n2cnc3c(N)ncnc32)[C@H](O)[C@@H]1O [Compound 183] | > 50 | 
5 | CN(CCCNC(=O)Nc1ccc(C2CCCCC2)cc1)C[C@H]1O[C@@H](n2cnc3c(N)ncnc32)[C@H](O)[C@@H]1O [Compound 185] | > 50 | 
6 | CN(CCCNC(=O)Nc1ccc(-c2cscn2)cc1)C[C@H]1O[C@@H](n2cnc3c(N)ncnc32)[C@H](O)[C@@H]1O [Compound 190] | > 50 | 
7 | CC(=O)N(CCCNC(=O)Nc1ccc(C(C)(C)C)cc1)C[C@H]1O[C@@H](n2cnc3c(N)ncnc32)[C@H](O)[C@@H]1O [Compound 195] | > 50 | 
8 | Cc1cccc(-c2ccc(NC(=O)NCCCN(C)C[C@H]3O[C@@H](n4cnc5c(N)ncnc54)[C@H](O)[C@@H]3O)cc2)c1 [Compound 199] | > 50 | 
9 | CC(C)CN(CCCNC(=O)Nc1ccc(C(C)(C)C)cc1)C[C@H]1O[C@@H](n2cnc3c(N)ncnc32)[C@H](O)[C@@H]1O [Compound 209] | > 50 | 

Further lines, with some results ahead:

Row | IC50 (EZH2) [µM] | Compound | further results
10 | > 50 | CN(CCCOC(=O)Nc1ccc(C(C)(C)C)cc1)C[C@H]1O[C@@H](n2cnc3c(N)ncnc32)[C@H](O)[C@@H]1O [Compound 152] | 
11 | > 50 | CN(CCCCNC(=O)Nc1ccc(C(C)(C)C)cc1)C[C@H]1O[C@@H](n2cnc3c(N)ncnc32)[C@H](O)[C@@H]1O [Compound 159] | 
12 | > 50 | CCN(CCCNC(=O)Nc1ccc(C(C)(C)C)cc1)C[C@H]1O[C@@H](n2cnc3c(N)ncnc32)[C@H](O)[C@@H]1O [Compound 169] | 
13 | > 50 | CN(CCCN(C)C(=O)Nc1ccc(C(C)(C)C)cc1)C[C@H]1O[C@@H](n2cnc3c(N)ncnc32)[C@H](O)[C@@H]1O [Compound 173] | 
14 | > 50 | CN(CCCCC(=O)Nc1ccc(C(C)(C)C)cc1)C[C@H]1O[C@@H](n2cnc3c(N)ncnc32)[C@H](O)[C@@H]1O [Compound 179] | 
15 | > 50 | CC(C)(C)c1ccc(NC(=O)NCCCN(C=O)C[C@H]2O[C@@H](n3cnc4c(N)ncnc43)[C@H](O)[C@@H]2O)cc1 [Compound 206] | 
16 | > 50 | CN(CCCCCNC(=O)Nc1ccc(C(C)(C)C)cc1)C[C@H]1O[C@@H](n2cnc3c(N)ncnc32)[C@H](O)[C@@H]1O [Compound 213] | 
17 | > 50 | CC(CNC(=O)Nc1ccc(C(C)(C)C)cc1)CN(C)C[C@H]1O[C@@H](n2cnc3c(N)ncnc32)[C@H](O)[C@@H]1O (some centres unmarked) [Compound 223] | 
